# Source: patent US20050239809A1, “Methods for treating and preventing hypertension and hypertension-related disorders” (priority 2004, published 2005)
# System: endothelium-denuded aorta from DOCA-salt and sham rats
# Assay: Spontaneous tone of endothelium-denuded thoracic aorta in isolated tissue baths (isometric force)
# Set-up: species or system rat
# Method: Endothelial cell-denuded thoracic aorta, removed from pentobarbital (60 mg kg^-1, i.p.) anesthetized rats, were pair-mounted (Sham/DOCA) in isolated tissue baths for measurement of isometric force. (Florian and Watts (1999) Am. J. Physiol., 276: […]-[…]) Tissues were challenged with a maximal concentration of a adrenergic agonist, phenylephrine (PE) (10^-5 mol/L). IC87114 (ICOS Corporation, Bothell, Wash.) concentration response curves were generated by adding increasing concentrations of IC87114 (1×10^-9-3×10^-4 mol/L) with measurements of spontaneous tone taken every 30 minutes. Aortic strips from DOCA-salt rats were also exposed to 20 μmol/L IC87114 or vehicle for 1 hour and measurements of spontaneous tone were recorded. […] Tissues were under passive tension for optimal force production. […] The effect of IC87114 was reversible in all experiments, as spontaneous tone was restored upon washing out of IC87114. In further experiments using an IC87114 concentration equivalent to that used in previous experiments with LY294002 (20 μmol/L) (Example 1), IC87114 (20 μmol/L) or vehicle (0.1% DMSO) was incubated with aortic strips from DOCA-salt rats for 1 hour in isolated tissue baths.
compound,measurement,setting,value
"Cc1ccccc1-n1c(Cn2cnc3c(N)ncnc32)nc2cccc(C)c2c1=O [IC87114, 2-(6-aminopurin-9-ylmethyl)-5-methyl-3-o-tolyl-3H-quinazolin-4-one]","effect on spontaneous tone in aorta from DOCA-salt rats, single concentration","20 μmol/L, 1 hour incubation, compared to vehicle (0.1% DMSO), P<0.05",significantly inhibits spontaneous tone development
same,effect of increasing concentrations on spontaneous tone in aorta from DOCA-salt rats,"10^−9 to 3×10^−4 mol/L, absence of agonist, endothelium-denuded aortic strips",reduced spontaneous tone in a concentration-dependent manner
same,reversibility of effect on spontaneous tone upon washing out,aorta from DOCA-salt rats,reversible
